The test system of this assay is HIV-1 (RF). Put plainly: HIV RNA assay: microplate based compound evaluation in HIV-1 infected MT-2 cells. It counts as cell-based. The conditions noted are these: Human immunodeficiency virus 1, MT2, 72 h; HIV-1 (RF) infected MT-2 cells, 3 days at 37° C.; virus dilutions selected to give this ddC value (standardization of inoculum); read-out: IC90 value (concentration of compound required to reduce the HIV RNA level by 90%). Here is the method: Plasmid pDAB 72 containing both gag and pol sequences of BH10 (bp 113-1816) cloned into PTZ 19R was prepared according to Erickson-Viitanen et al. AIDS Research and Human Retroviruses 1989, 5, 577. The plasmid was linearized with Bam HI prior to the generation of in vitro RNA transcripts using the Riboprobe Gemini system II kit (Promega) with T7 RNA polymerase. Synthesized RNA was purified by treatment with RNase free DNAse (Promega), phenol-chloroform extraction, and ethanol precipitation. RNA transcripts were dissolved in water, and stored at -70° C. The concentration of RNA was determined from the A260.
Biotinylated capture probes were purified by HPLC after synthesis on an Applied Biosystems (Foster City, Calif.) DNA synthesizer by addition of biotin to the 5' terminal end of the oligonucleotide, using the biotin-phosphoramidite reagent of Cocuzza, Tet. Lett. 1989, 30, 6287. […]
MT-2 and MT-4 cells were maintained in RPMI 1640 supplemented with 5% fetal calf serum (FCS) for MT-2 cells or 10% FCS for MT-4 cells, 2 mM L-glutamine and 50 μg/mL gentamycin, all from Gibco. […] Infectious titers of HIV-1(RF) stocks were 1-3×10^7 PFU (plaque forming units)/mL as measured by plaque assay on MT-2 cells (see below). […]

SMILES strings stand for the structures. Values after ≈ are worked out from the molar mass of the structure shown.

Take `Nc1ccn([C@H]2CC[C@@H](CO)O2)c(=O)n1` [ddC, 2',3'-dideoxycytidine]: the IC90 turned out to be 0.2 µg/mL (≈ 0.947 µM).
